The record followed here is PubChem BioAssay AID1259407 (Chemical Carcinogenesis Research Information System (CCRIS), 2018).

Calls of active or inactive are those of the source. The rule behind the calls is not given here.

The data set concerns CCRIS mutagenicity, Ames/micronucleus/aberration tests. Briefly: CCRIS mutagenicity studies.

Consider `O=C(O)c1ccccc1Cl`, for which the mutagenic call is, setting by setting: (Test System: AMES SALMONELLA TYPHIMURIUM, Strain/Indicator: TA97, Metabolic Activation: HAMSTER, LIVER, S-9, AROCLOR 1254 (10 OR 30%), Method: PREINCUBATION) “inactive; negative”; (Test System: AMES SALMONELLA TYPHIMURIUM, Strain/Indicator: TA97, Metabolic Activation: NONE, Method: PREINCUBATION) “inactive; negative”; (Test System: AMES SALMONELLA TYPHIMURIUM, Strain/Indicator: TA97, Metabolic Activation: RAT, LIVER, S-9, AROCLOR 1254 (10 OR 30%), Method: PREINCUBATION) “inactive; negative”; (Test System: AMES SALMONELLA TYPHIMURIUM, Strain/Indicator: TA98, Metabolic Activation: HAMSTER, LIVER, S-9, AROCLOR 1254 (10 OR 30%), Method: PREINCUBATION) “inactive; negative”; (Test System: AMES SALMONELLA TYPHIMURIUM, Strain/Indicator: TA98, Metabolic Activation: NONE, Method: PREINCUBATION) “inactive; negative”; (Test System: AMES SALMONELLA TYPHIMURIUM, Strain/Indicator: TA98, Metabolic Activation: RAT LIVER S-9, PCB, Method: PREINCUBATION) “inactive; negative”. Besides, the mutagenic call by setting is: (Test System: AMES SALMONELLA TYPHIMURIUM, Strain/Indicator: TA98, Metabolic Activation: RAT LIVER S-9, PHENOBARBITAL AND BETA-NAPHTHOFLAVONE, Method: PREINCUBATION) “inactive; negative”; (Test System: AMES SALMONELLA TYPHIMURIUM, Strain/Indicator: TA98, Metabolic Activation: RAT, LIVER, S-9, AROCLOR 1254 (10 OR 30%), Method: PREINCUBATION) “inactive; negative”; (Test System: AMES SALMONELLA TYPHIMURIUM, Strain/Indicator: TA100, Metabolic Activation: HAMSTER, LIVER, S-9, AROCLOR 1254 (10 OR 30%), Method: PREINCUBATION) “inactive; negative”; (Test System: AMES SALMONELLA TYPHIMURIUM, Strain/Indicator: TA100, Metabolic Activation: NONE, Method: PREINCUBATION) “inactive; negative”; (Test System: AMES SALMONELLA TYPHIMURIUM, Strain/Indicator: TA100, Metabolic Activation: RAT LIVER S-9, PCB, Method: PREINCUBATION) “inactive; negative”; (Test System: AMES SALMONELLA TYPHIMURIUM, Strain/Indicator: TA100, Metabolic Activation: RAT LIVER S-9, PHENOBARBITAL AND BETA-NAPHTHOFLAVONE, Method: PREINCUBATION) “inactive; negative”. The mutagenic call runs as follows: (Test System: AMES SALMONELLA TYPHIMURIUM, Strain/Indicator: TA100, Metabolic Activation: RAT, LIVER, S-9, AROCLOR 1254 (10 OR 30%), Method: PREINCUBATION) “inactive; negative”; (Test System: AMES SALMONELLA TYPHIMURIUM, Strain/Indicator: TA104, Metabolic Activation: NONE, Method: PREINCUBATION) “inactive; negative”; (Test System: AMES SALMONELLA TYPHIMURIUM, Strain/Indicator: TA104, Metabolic Activation: RAT LIVER S-9, PCB, Method: PREINCUBATION) “inactive; negative”; (Test System: AMES SALMONELLA TYPHIMURIUM, Strain/Indicator: TA1535, Metabolic Activation: HAMSTER, LIVER, S-9, AROCLOR 1254 (10 OR 30%), Method: PREINCUBATION) “inactive; negative”; (Test System: AMES SALMONELLA TYPHIMURIUM, Strain/Indicator: TA1535, Metabolic Activation: NONE, Method: PREINCUBATION) “inactive; negative”; (Test System: AMES SALMONELLA TYPHIMURIUM, Strain/Indicator: TA1535, Metabolic Activation: RAT LIVER S-9, PHENOBARBITAL AND BETA-NAPHTHOFLAVONE, Method: PREINCUBATION) “inactive; negative”. The mutagenic call is, setting by setting: (Test System: AMES SALMONELLA TYPHIMURIUM, Strain/Indicator: TA1535, Metabolic Activation: RAT, LIVER, S-9, AROCLOR 1254 (10 OR 30%), Method: PREINCUBATION) “inactive; negative”; (Test System: AMES SALMONELLA TYPHIMURIUM, Strain/Indicator: TA1537, Metabolic Activation: HAMSTER, LIVER, S-9, AROCLOR 1254 (30%), Method: PREINCUBATION) “inactive; negative”; (Test System: AMES SALMONELLA TYPHIMURIUM, Strain/Indicator: TA1537, Metabolic Activation: NONE, Method: PREINCUBATION) “inactive; negative”; (Test System: AMES SALMONELLA TYPHIMURIUM, Strain/Indicator: TA1537, Metabolic Activation: RAT LIVER S-9, PHENOBARBITAL AND BETA-NAPHTHOFLAVONE, Method: PREINCUBATION) “inactive; negative”; (Test System: AMES SALMONELLA TYPHIMURIUM, Strain/Indicator: TA1537, Metabolic Activation: RAT, LIVER, S-9, AROCLOR 1254 (30%), Method: PREINCUBATION) “inactive; negative”; (Test System: AMES SALMONELLA TYPHIMURIUM, Strain/Indicator: TA1538, Metabolic Activation: NONE, Method: PREINCUBATION) “inactive; negative”. Moreover, the mutagenic call by setting is: (Test System: AMES SALMONELLA TYPHIMURIUM, Strain/Indicator: TA1538, Metabolic Activation: RAT LIVER S-9, PHENOBARBITAL AND BETA-NAPHTHOFLAVONE, Method: PREINCUBATION) “inactive; negative”; (Test System: E.COLI, Strain/Indicator: WP2 UVRA, Metabolic Activation: NONE, Method: PREINCUBATION) “inactive; negative”; (Test System: E.COLI, Strain/Indicator: WP2UVRA, Metabolic Activation: NONE, Method: PREINCUBATION) “inactive; negative”; (Test System: E.COLI, Strain/Indicator: WP2 UVRA, Metabolic Activation: RAT LIVER S-9, PCB, Method: PREINCUBATION) “inactive; negative”; (Test System: E.COLI, Strain/Indicator: WP2UVRA, Metabolic Activation: RAT LIVER S-9, PHENOBARBITAL AND BETA-NAPHTHOFLAVONE, Method: PREINCUBATION) “inactive; negative”.

As to `CCN(CC)CCCNc1ccc2ncn3c4ccc(O)cc4c(=O)c1c23`, under “Test System: CHINESE HAMSTER V-79, Strain/Indicator: V-79 (HGPRT)/6-THIOGUANINE, Metabolic Activation: NONE”, the mutagenic call was “active; positive”.

For `Cc1cccc(N=Nc2ccc(N(C)C)cc2)c1`, the mutagenic call was “active; positive” (Test System: AMES SALMONELLA TYPHIMURIUM, Strain/Indicator: TA98, Metabolic Activation: RAT, LIVER, S-9, KC500 OR PHENOBARBITAL, Method: LIQUID SUSPENSION); “active; positive” (Test System: AMES SALMONELLA TYPHIMURIUM, Strain/Indicator: TA98, Metabolic Activation: RAT, LIVER, S-9, N-BENZYLIMIDAZOLE, Method: PREINCUBATION); “active; positive” (Test System: AMES SALMONELLA TYPHIMURIUM, Strain/Indicator: TA100, Metabolic Activation: RAT, LIVER, S-9, KC500 OR PHENOBARBITAL, Method: LIQUID SUSPENSION); “active; positive” (Test System: AMES SALMONELLA TYPHIMURIUM, Strain/Indicator: TA1538, Metabolic Activation: RAT, LIVER, S-9, PHENOBARBITAL, Method: STANDARD PLATE); “active; positive” (Test System: UDS RODENT HEPATOCYTES, Strain/Indicator: THY INCORP (NON-S-PHASE), Method: AUTORADIOGRAPHY); “active; positive” (Test System: UDS RODENT HEPATOCYTES, Strain/Indicator: THY INCORP (NON-S-PHASE), Method: LIQUID SCINTILLATION COUNTING).
